The text below walks through data of patent publication US11512042B2, “Enamine compounds for absorbance of electromagnetic energy” (Commonwealth Scientific and Industrial Research Organisation, priority 2015, dated 2022).

Data set [1] is described as follows: Photostability protocol: thin film irradiated with xenon arc lamp. It is filed as physicochemical. The settings on record: 1 hour xenon arc lamp. The procedure: 1 mL of a 3% solution of the test compound (30 mg of test compound in 1 mL solvent) was prepared in a solvent mix made up of 50% EtOH and 25% capric/caprylic triglyceride and 25% C12-C15 alkyl benzoate. 50 μL of this solution (containing 1.5 mg of test compound) was added carefully to the centre of a glass microscope slide and the volatile components left to evaporate in the dark for at least 3 hours to give a liquid film. The prepared films were then exposed for 1 hour to an Eimac 150 W xenon arc lamp filtered through Pyrex (15 Amp supply current, samples 19 cm from the lamp) previously allowed to warm up for 15 minutes prior to sample exposure. The irradiation was performed in a fume cupboard where the air flow was sufficient to keep sample T<30° C. One hour's exposure represented a calculated radiation dose (using meter) of approximately 100 MED.
In order to calculate the photostability of the test compounds, the exposed slides were placed in a beaker and rinsed with 2×5 mL EtOH, 1×5 mL MeOH. The combined washings were then added to a 100 mL volumetric flask and made up to 100 mL total volume with methanol. The UV absorbance was then measured in a 10 mm cuvette. The percent stability is measured as the ratio of absorbance at λmax for the irradiated sample compared to the unirradiated sample.
The thin films are a good surrogate for testing the stability of a candidate in, for example, a sunscreen formulation as they use cosmetic emollients as solvent and are formed at cosmetically relevant concentrations.

A short description of data set [2]: UV absorbance spectrum in solution (λmax, λcrit, extinction coefficients). It is filed as physicochemical. The settings on record: for E (1%, 1 cm): mass extinction coefficient; for ε: molar extinction coefficient, in M-1 cm-1 (unit assumed); for λcrit: critical wavelength. From the text: FIG. 1 is a graphical representation of the absorbance of compounds 142 and 143 measured in a 10 mm cuvette as 0.001% solutions in methanol (142 is the uppermost trace at peak point of approximately 330 nm); The synthesised benzoyl functionalised compounds and their spectroscopic properties can be seen in table 2 wherein; breakthrough denotes the value in nm where transmittance increases beyond 1%; steepness refers to the distance in nm over which transmittance increases from 1 to 80% (a higher value indicates a less steep transition from absorbing to transmitting and is generally unfavourable); and ^a denotes an average of multiple measurements. As a general comment, it can be noted that the benzoyl substituted compounds gave similar absorbance maxima to the corresponding trifluoroacetyl derivative.

`CCN(/C=C(\C(C)=O)c1ccccc1)CC` [Compound 149]: the “Photostability (% remains)” value in data set [1] was 6%. Besides, in data set [2], the λmax was 294 nm; the “E (1%, 1 cm)” value came to 690; the ε was 14973.

For the molecule `CCOC(=O)/C(=C\N(C)C)c1ccccc1` [Compound 171], the “Photostability (% remains)” value in data set [1] stood at 18%. Moreover, in data set [2], the λmax amounted to 291 nm; the “E (1%, 1 cm)” value is 1169; the ε was found to be 22598.

In the case of `CN(/C=C(\C(=O)C(F)(F)F)c1ccccc1)c1ccccc1` [Compound 183], in data set [1], the “Photostability (% remains)” value turned out to be 90%. Besides, the Photostability in data set [1] (ratio of absorbance at λmax irradiated vs unirradiated, ^a = average of multiple measurements) came out at 90%. In data set [2], the λmax is reported as 332 nm; the λcrit is given as 367 nm; the “E (1%, 1 cm)” value is 759; the ε was 23153.

With `CCN(/C=C(\C(=O)C(F)(F)C(F)(F)C(F)(F)F)c1ccccc1)c1ccccc1` [Compound 191], the “Photostability (% remains)” value in data set [1] stood at 95%. Further, in data set [2], the λmax turned out to be 332 nm; the λcrit is 370 nm; the “E (1%, 1 cm)” value is listed as 452; the ε worked out at 18948.

Turning to `COc1ccc2c(c1)CCN2/C=C(\C(=O)C(F)(F)F)c1ccccc1` [Compound 200], the “Photostability (% remains)” value in data set [1] came out at 91%. In addition, in data set [2], the λmax was found to be 381 nm; the λcrit worked out at 393 nm; the “E (1%, 1 cm)” value is recorded as 1004; the ε is recorded as 34855.

Consider `CCN(/C=C(\C(=O)c1c(F)c(F)c(F)c(F)c1F)c1ccccc1)CC` [Compound 203], for which, in data set [1], the “Photostability (% remains)” value was determined as 31%. In data set [2], the λmax is given as 319 (broad) nm; the λcrit is on record as 356 nm; the “E (1%, 1 cm)” value is 611; the ε worked out at 22532.

On to `O=C(/C(=C(/c1ccccc1)N1CCCC1)c1ccccc1)C(F)(F)F` [Compound 204], for which the “Photostability (% remains)” value in data set [1] came to 70%. Moreover, in data set [2], the λmax is on record as 363 nm; the λcrit worked out at 387 nm; the “E (1%, 1 cm)” value is 358; the ε was 12357.

Take `O=C(/C(=C\N1CCCN(/C=C(\C(=O)C(F)(F)F)c2ccccc2)c2ccccc21)c1ccccc1)C(F)(F)F` [Compound 224]: in data set [1], the “Photostability (% remains)” value was found to be 97%. In data set [2], the λmax is 323 nm; the λcrit stood at 366 nm; the “E (1%, 1 cm)” value came to 690; the ε worked out at 37546.

Regarding `CCCCC(CC)COC(=O)c1ccc(N(/C=C(\C(=O)C(F)(F)F)c2ccccc2)CC)cc1` (stereo not shown) [Compound 227], the “Photostability (% remains)” value in data set [1] was found to be 85%. Also, in data set [2], the λmax came to 347 nm; the λcrit was found to be 374 nm; the “E (1%, 1 cm)” value is 646; the ε worked out at 30252.

As to `O=C(OCCCOC(=O)c1ccc2c(c1)CCN2/C=C(\C(=O)C(F)(F)F)c1ccccc1)c1ccc2c(c1)CCN2/C=C(\C(=O)C(F)(F)F)c1ccccc1` [Compound 228], the “Photostability (% remains)” value in data set [1] worked out at 95%. Also, in data set [2], the λmax worked out at 374 nm; the λcrit came to 391 nm; the “E (1%, 1 cm)” value was 1168; the ε was determined as 89042.
